Source: PubChem BioAssay (NCI)
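These data come from cells grown in 96-well plates and exposed to compound for 48 hours at five concentrations. The concentration for 50% growth inhibition is given as GI50. TGI: concentration producing complete growth inhibition.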

Key:
Experiment in all cases: growth of human tumour cells (NCI), 48 h
786-0 renal = system: 786-0 renal
A498 renal = system: A498 renal
A549 NSCLC = system: A549 NSCLC
ACHN renal = system: ACHN renal
BT-549 breast = system: BT-549 breast
CAKI-1 renal = system: CAKI-1 renal
CCRF-CEM leukemia = system: CCRF-CEM leukemia
COLO 205 colon = system: COLO 205 colon
DU-145 prostate = system: DU-145 prostate
EKVX NSCLC = system: EKVX NSCLC
HCC-2998 colon = system: HCC-2998 colon
HCT-116 colon = system: HCT-116 colon
HCT-15 colon = system: HCT-15 colon
HL-60(TB) leukemia = system: HL-60(TB) leukemia
HOP-62 NSCLC = system: HOP-62 NSCLC
HOP-92 NSCLC = system: HOP-92 NSCLC
HS 578T breast = system: HS 578T breast
HT29 colon = system: HT29 colon
IGROV1 ovarian = system: IGROV1 ovarian
K-562 leukemia = system: K-562 leukemia
KM12 colon = system: KM12 colon
LOX IMVI melanoma = system: LOX IMVI melanoma
M14 melanoma = system: M14 melanoma
MALME-3M melanoma = system: MALME-3M melanoma
MCF7 breast = system: MCF7 breast
MDA-MB-231 breast = system: MDA-MB-231 breast
MDA-MB-435 = system: MDA-MB-435
MOLT-4 leukemia = system: MOLT-4 leukemia
NCI-H226 lung = system: NCI-H226 lung
NCI-H23 lung = system: NCI-H23 lung
NCI-H460 lung = system: NCI-H460 lung
NCI-H522 lung = system: NCI-H522 lung
NCI/ADR-RES ovarian = system: NCI/ADR-RES ovarian
OVCAR-3 ovarian = system: OVCAR-3 ovarian
OVCAR-4 ovarian = system: OVCAR-4 ovarian
OVCAR-5 ovarian = system: OVCAR-5 ovarian
OVCAR-8 ovarian = system: OVCAR-8 ovarian
PC-3 prostate = system: PC-3 prostate
RPMI-8226 leukemia = system: RPMI-8226 leukemia
RXF 393 renal = system: RXF 393 renal
SF-268 CNS = system: SF-268 CNS
SF-295 CNS = system: SF-295 CNS
SF-539 CNS = system: SF-539 CNS
SK-MEL-2 melanoma = system: SK-MEL-2 melanoma
SK-MEL-28 melanoma = system: SK-MEL-28 melanoma
SK-MEL-5 melanoma = system: SK-MEL-5 melanoma
SK-OV-3 ovarian = system: SK-OV-3 ovarian
SN12C renal = system: SN12C renal
SNB-19 CNS = system: SNB-19 CNS
SNB-75 CNS = system: SNB-75 CNS
SW-620 colon = system: SW-620 colon
T-47D breast = system: T-47D breast
TK-10 renal = system: TK-10 renal
U251 CNS = system: U251 CNS
UACC-257 melanoma = system: UACC-257 melanoma
UACC-62 melanoma = system: UACC-62 melanoma
UO-31 renal = system: UO-31 renal

For `COc1cc(/C=C/C(=O)c2cccc(Nc3nc(Nc4ccccc4)nc(Nc4ccccc4)n3)c2)cc(OC)c1OC`, which GI50 (786-0 renal) is on record?
The GI50 was 7.66 µM.

What about the TGI (786-0 renal) of the same compound?
The TGI was 43.2 µM.

What about the GI50 (A498 renal) of the same compound?
The GI50 was 7.47 µM.

What about the TGI (A498 renal) of the same compound?
Its TGI is > 49.9 µM.

What about the GI50 (A549 NSCLC) of the same compound?
Its GI50 is 36.6 µM.

What about the TGI (A549 NSCLC) of the same compound?
The TGI was > 100 µM.

And the GI50 (ACHN renal)?
The GI50 was 24.1 µM.

What about the TGI (ACHN renal) of the same compound?
Its TGI is > 100 µM.

What about the GI50 (BT-549 breast) of the same compound?
Its GI50 is 8.36 µM.

What about the TGI (BT-549 breast) of the same compound?
The TGI was > 100 µM.

And the TGI (CAKI-1 renal)?
Its TGI is > 26.2 µM.

And the GI50 (CCRF-CEM leukemia)?
The GI50 was 0.904 µM.

And the TGI (CCRF-CEM leukemia)?
Its TGI is 5.67 µM.

And the GI50 (COLO 205 colon)?
The GI50 was 4.77 µM.

What about the TGI (COLO 205 colon) of the same compound?
Its TGI is 30.7 µM.

And the GI50 (DU-145 prostate)?
The GI50 was 5.91 µM.

And the TGI (DU-145 prostate)?
The TGI was > 100 µM.

What about the GI50 (EKVX NSCLC) of the same compound?
The GI50 was 9.94 µM.

And the TGI (EKVX NSCLC)?
The TGI was > 100 µM.

And the GI50 (HCC-2998 colon)?
The GI50 was 5.5 µM.

And the TGI (HCC-2998 colon)?
The TGI was 53.1 µM.

And the GI50 (HCT-116 colon)?
Its GI50 is 2.68 µM.

What about the TGI (HCT-116 colon) of the same compound?
Its TGI is > 66.6 µM.

And the GI50 (HCT-15 colon)?
The GI50 was 4.57 µM.

And the TGI (HCT-15 colon)?
The TGI was > 100 µM.

What about the GI50 (HL-60(TB) leukemia) of the same compound?
The GI50 was 1.33 µM.

What about the TGI (HL-60(TB) leukemia) of the same compound?
Its TGI is 4.1 µM.

And the GI50 (HOP-62 NSCLC)?
Its GI50 is 23.5 µM.

What about the TGI (HOP-62 NSCLC) of the same compound?
The TGI was > 94.5 µM.

And the GI50 (HOP-92 NSCLC)?
The GI50 was 1.36 µM.

And the TGI (HOP-92 NSCLC)?
Its TGI is > 31.2 µM.

What about the GI50 (HS 578T breast) of the same compound?
The GI50 was 4.83 µM.

And the TGI (HS 578T breast)?
The TGI was > 54.4 µM.

What about the GI50 (HT29 colon) of the same compound?
The GI50 was 6.41 µM.

What about the TGI (HT29 colon) of the same compound?
Its TGI is > 100 µM.

And the GI50 (IGROV1 ovarian)?
The GI50 was 3.22 µM.

And the TGI (IGROV1 ovarian)?
The TGI was > 100 µM.

What about the GI50 (K-562 leukemia) of the same compound?
The GI50 was 1.37 µM.

And the TGI (K-562 leukemia)?
Its TGI is > 38.8 µM.

And the GI50 (KM12 colon)?
The GI50 was 3.71 µM.

What about the TGI (KM12 colon) of the same compound?
Its TGI is > 87.9 µM.

What about the GI50 (LOX IMVI melanoma) of the same compound?
The GI50 was 6.32 µM.

What about the TGI (LOX IMVI melanoma) of the same compound?
Its TGI is > 45.1 µM.

What about the GI50 (M14 melanoma) of the same compound?
Its GI50 is 24.1 µM.

And the TGI (M14 melanoma)?
Its TGI is > 100 µM.

What about the GI50 (MALME-3M melanoma) of the same compound?
The GI50 was 18.2 µM.

And the TGI (MALME-3M melanoma)?
The TGI was 79.3 µM.

What about the GI50 (MCF7 breast) of the same compound?
The GI50 was 0.588 µM.

What about the TGI (MCF7 breast) of the same compound?
The TGI was > 54.1 µM.

And the GI50 (MDA-MB-231 breast)?
The GI50 was 11.7 µM.

And the TGI (MDA-MB-231 breast)?
Its TGI is > 100 µM.

And the GI50 (MDA-MB-435)?
The GI50 was 7.67 µM.

And the TGI (MDA-MB-435)?
The TGI was > 73.4 µM.

What about the GI50 (MOLT-4 leukemia) of the same compound?
The GI50 was 1.07 µM.

What about the TGI (MOLT-4 leukemia) of the same compound?
Its TGI is 4.38 µM.

What about the GI50 (NCI-H226 lung) of the same compound?
Its GI50 is 17.2 µM.

And the TGI (NCI-H226 lung)?
The TGI was > 81 µM.

And the GI50 (NCI-H23 lung)?
Its GI50 is 6.07 µM.

What about the TGI (NCI-H23 lung) of the same compound?
Its TGI is > 100 µM.

What about the GI50 (NCI-H460 lung) of the same compound?
Its GI50 is 2.05 µM.

And the TGI (NCI-H460 lung)?
The TGI was 20.9 µM.

What about the GI50 (NCI-H522 lung) of the same compound?
Its GI50 is 5.11 µM.

And the TGI (NCI-H522 lung)?
Its TGI is > 100 µM.

And the GI50 (NCI/ADR-RES ovarian)?
The GI50 was 3.82 µM.

What about the TGI (NCI/ADR-RES ovarian) of the same compound?
The TGI was > 100 µM.

What about the GI50 (OVCAR-3 ovarian) of the same compound?
Its GI50 is 4.49 µM.

And the TGI (OVCAR-3 ovarian)?
The TGI was 56 µM.

What about the GI50 (OVCAR-4 ovarian) of the same compound?
The GI50 was 33.9 µM.

And the TGI (OVCAR-4 ovarian)?
The TGI was > 100 µM.

And the GI50 (OVCAR-5 ovarian)?
Its GI50 is 38.4 µM.

And the TGI (OVCAR-5 ovarian)?
Its TGI is > 100 µM.

And the GI50 (OVCAR-8 ovarian)?
Its GI50 is 0.988 µM.

And the TGI (OVCAR-8 ovarian)?
Its TGI is > 100 µM.

What about the GI50 (PC-3 prostate) of the same compound?
The GI50 was 2.19 µM.

And the TGI (PC-3 prostate)?
Its TGI is > 100 µM.

What about the GI50 (RPMI-8226 leukemia) of the same compound?
Its GI50 is 0.53 µM.

And the TGI (RPMI-8226 leukemia)?
Its TGI is 4.58 µM.

What about the GI50 (RXF 393 renal) of the same compound?
The GI50 was 1.6 µM.

And the TGI (RXF 393 renal)?
The TGI was 11.1 µM.

And the GI50 (SF-268 CNS)?
Its GI50 is 13.8 µM.

What about the TGI (SF-268 CNS) of the same compound?
Its TGI is > 100 µM.

And the GI50 (SF-295 CNS)?
The GI50 was 2.58 µM.

What about the GI50 (SF-539 CNS) of the same compound?
Its GI50 is 12 µM.

And the TGI (SF-539 CNS)?
Its TGI is 34 µM.

What about the GI50 (SK-MEL-2 melanoma) of the same compound?
Its GI50 is 7.78 µM.

What about the TGI (SK-MEL-2 melanoma) of the same compound?
The TGI was > 65.4 µM.

And the GI50 (SK-MEL-28 melanoma)?
The GI50 was 4.02 µM.

What about the TGI (SK-MEL-28 melanoma) of the same compound?
The TGI was 19.6 µM.

And the GI50 (SK-MEL-5 melanoma)?
The GI50 was 2.7 µM.

And the TGI (SK-MEL-5 melanoma)?
Its TGI is 23.8 µM.

And the GI50 (SK-OV-3 ovarian)?
Its GI50 is 43.1 µM.

What about the TGI (SK-OV-3 ovarian) of the same compound?
The TGI was > 100 µM.

And the GI50 (SN12C renal)?
Its GI50 is 20.7 µM.

What about the TGI (SN12C renal) of the same compound?
Its TGI is > 100 µM.

What about the GI50 (SNB-19 CNS) of the same compound?
The GI50 was 10.1 µM.

What about the TGI (SNB-19 CNS) of the same compound?
Its TGI is > 100 µM.

And the GI50 (SNB-75 CNS)?
Its GI50 is 16 µM.

And the TGI (SNB-75 CNS)?
Its TGI is > 100 µM.

What about the GI50 (SW-620 colon) of the same compound?
The GI50 was 3.73 µM.

What about the TGI (SW-620 colon) of the same compound?
Its TGI is > 100 µM.

And the GI50 (T-47D breast)?
Its GI50 is 1.98 µM.

And the TGI (T-47D breast)?
The TGI was > 59 µM.

And the GI50 (TK-10 renal)?
Its GI50 is 63.9 µM.

What about the TGI (TK-10 renal) of the same compound?
Its TGI is > 100 µM.

And the GI50 (U251 CNS)?
Its GI50 is 11.4 µM.

What about the TGI (U251 CNS) of the same compound?
Its TGI is > 100 µM.

And the GI50 (UACC-257 melanoma)?
The GI50 was 25 µM.

What about the TGI (UACC-257 melanoma) of the same compound?
Its TGI is > 100 µM.

And the GI50 (UACC-62 melanoma)?
The GI50 was 43.8 µM.

What about the TGI (UACC-62 melanoma) of the same compound?
Its TGI is > 100 µM.

And the GI50 (UO-31 renal)?
Its GI50 is 5.15 µM.

What about the TGI (UO-31 renal) of the same compound?
Its TGI is > 100 µM.
